In article PMC10674299, “Discovery of Guanfacine as a Novel TAAR1 Agonist: A Combination Strategy through Molecular Modeling Studies and Biological Assays” (Pharmaceuticals, 2023):
Where two headings read alike, the source gives them in different places.

What was measured:
[1] = target: α2-ADR; parameters: method as in PMID 22795332; conditions: cited from earlier work
[2] = tested on: α2-ADR; conditions: cited from earlier work
[3] = target: T1, hTAAR1 (Homo sapiens, UniProt Q96RJ0); conditions: S18616; cited from earlier work
T1 construct: Plasmid containing the cDNA for hTAAR1 was a generous gift from Hoffman-La Roche; expressed in transfected cells; host or cells: HEK293T (ATCC CRL-11268), transient transfection with Lipofectamine 2000
T1 sequence (Q96RJ0 1-339): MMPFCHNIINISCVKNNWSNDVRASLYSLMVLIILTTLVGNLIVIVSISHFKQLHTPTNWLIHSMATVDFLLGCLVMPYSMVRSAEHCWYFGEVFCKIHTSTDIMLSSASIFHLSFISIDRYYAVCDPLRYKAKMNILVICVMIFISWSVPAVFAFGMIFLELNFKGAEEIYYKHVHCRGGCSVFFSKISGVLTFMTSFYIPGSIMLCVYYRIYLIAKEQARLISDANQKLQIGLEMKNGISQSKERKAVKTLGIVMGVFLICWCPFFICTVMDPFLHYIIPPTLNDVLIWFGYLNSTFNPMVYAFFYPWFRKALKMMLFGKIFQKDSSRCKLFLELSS

[4] = tested on: mTAAR1; parameters: method as in PMID 19725810; conditions: cited from earlier work
[5] = tested on: mTAAR1; parameters: method as in doi:10.1039/C5MD00400D; conditions: BRET cAMP reporter; cited from earlier work
[6] = target: T1, hTAAR1; test: BRET-based cAMP assay in HEK293 cells transfected with hTAAR1 and cAMP biosensor; assay type: cell-based; conditions: for EC50: HEK293, dose-response 1 nM to 10 μM, IBMX 200 µM
Protocol: hTAAR1 is coupled to stimulatory G proteins and thus its activation induces an increase in the cAMP production. We measured the potential activity of guanfacine and guanabenz by using a BRET-based assay in which HEK293 cells were transfected with hTAAR1, or the empty vector as control, and the cAMP BRET biosensor. […] A dose-response experiment was performed using concentrations ranging from 1 nM to 10 μM to calculate the corresponding EC50 and the Emax values.
Human embryonic kidney 293 cells (HEK293T; ATCC CRL-11268) were maintained in Dulbecco’s Modified Eagle’s medium (DMEM; Gibco-Thermo Fisher Scientific, New York, NY, USA) supplemented with 10% (v/v) of FBS, 2 mM l-glutamine, and 0.05 mg/mL of gentamicin (both from Gibco) at 37 °C in a humidified atmosphere at 95% air and 5% CO2. Transient transfections were performed 24 h after cell seeding using the Lipofectamine reagent 2000 protocol (Invitrogen-Thermo Fisher Scientific, Carlsbad, USA). Then, 5 µg of hTAAR1 and 4 µg of cAMP biosensor protein (EPAC) encoding plasmids (the latter based on pcDNA3 core vector [59]) for each milliliter of transfection mix were used. For the BRET experiments, the cells were plated 6 h after transfection in poly-D-lysine coated 96-well white opaque microplates (Corning, New York, NY, USA) at a density of 7 × 10^4 cells per well in phenol red free Minimum Essential Medium (MEM; Gibco-Thermo Fisher Scientific, New York, NY, USA) containing 2% of FBS, 10 mM HEPES buffering agent, and 2 mM L-glutamine (all from Gibco-Thermo Fisher Scientific, New York, NY, USA). The cells were then cultured for an additional 24 h.
The BRET experiment was conducted as already described. Briefly, for time course experiments, the plate was read immediately after the addition of the agonist and for approximately 20 min. All the experiments were conducted in the presence of the phosphodiesterase inhibitor 3-isobutyl-1-methylxanthine (IBMX; Sigma-Aldrich, St. Louis, MO, USA) at the final concentration of 200 µM. Readings were collected using a Tecan Infinite instrument that allows the sequential integration of the signals detected in the 465 to 505 nm and 515 to 555 nm windows using filters with the appropriate band pass and by using iControl software. The acceptor/donor ratio was then calculated.
All the compounds were dissolved in dimethyl sulfoxide (DMSO; Sigma-Aldrich, St. Louis, MO, USA) and tested at the final concentration of 10 μM. Beta-phenylethylamine (Sigma-Aldrich, St. Louis, MO, USA) at the final concentration of 10 µM was applied as a positive control. To confirm specificity of positive responses, parallel screening on cells not transfected with the TAAR1-encoding vector was carried out. For compounds considered active, separate dose-response experiments were performed in order to calculate the EC50 values. Curves were fitted using a non-linear regression and one site specific binding with GraphPad Prism 6 (GraphPad Software). Data are representative of 4–5 independent experiments and are expressed as means, SD < 10%.

[7] = target: chimeric receptor cTAAR1; parameters: method as in PMID 19725810; conditions: cited from earlier work
[8] = parameters: method as in PMID 12351753; conditions: animal studies, cited from earlier work
[9] = tested on: DAT-KO rats; test: Locomotor activity of DAT-KO rats (Actometer); assay type: in vivo, rat; conditions: 0.1 and 0.3 mg/kg i/p, 60 min, vs vehicle p < 0.001 and p = 0.02 (Bonferroni)
Protocol: To evaluate the in vivo pharmacological effect of guanfacine, we used a rodent model of hyperdopaminergia, the dopamine transporter knockout (DAT-KO) rats, that also mimics some phenotypic aspect of ADHD and has certain predictive validity for the search of novel pharmacological agents to control hyperactivity and cognitive processes in patients with this disease. […] Thus, the effect of guanfacine on hyperactivity of DAT-KO rats was evaluated.
Results are presented on Figure 15. […] We used the mixed ANOVA (the within-subject factors ‘5-min bin’ (1–12) and ‘dose’ (0.0; 0.1; 0.3 mg/kg), the between-subject factor ‘mutation’ (‘WT’; ‘KO’); the random factor ‘rat #’) on rank-transformed data to analyze results. […] Locomotor activity of the rats decreased from the 1st to the 12th bin (the effect of factor ‘5-min bin’: F(11,51) = 2.51, p = 0.01). The lack of DAT was associated with an increased level of locomotor activity (the effect of factor ‘mutation’: F(1,11) = 222.94, p < 0.001). […] We used Bonferroni’s test for post hoc comparisons. […]
The study was performed in the apparatus ‘Actometer’ described in detail before. […] Following the injection, the locomotor activity of the animals was recorded for an additional 60 min divided in 12 intervals of 5-min each. […]

For `c1ccc(CC2=NCCN2)cc1` [5a], the Ki [1] is given as 0.0984 µM.

For `c1ccc(Cc2ncc[nH]2)cc1` [6a], the Ki [1] is given as 1.88 µM.

For `NC1=NC2(CCc3cccc(Cl)c3C2)CO1` (stereo not drawn) [S18616], the EC50 ([2]; S18616) is listed as 0.0007 µM and the EC50 [3] is listed as 0.015 µM.

In the case of `CC(C)N(Cc1c[nH]cn1)c1ccc(Cl)cc1` [compound 24], the Ki [1] is given as 0.84 µM.

For `CCN(Cc1ncc[nH]1)c1ccccc1` [compound 51], the Ki [1] is given as 0.254 to 0.497 µM.

For `N=C(N)N/N=C/c1c(Cl)cccc1Cl` [guanabenz], the EC50 ([2]; guanabenz) is listed as roughly 0.0163 µM, the EC50 [4] is listed as 0.007 µM and the “type of agonism at mTAAR1” value [4] is listed as “partial agonist”. The EC50 [5] was 0.09 µM, the “type of agonism at mTAAR1” value [5] was “full agonist” and the Emax ([6]; HEK293, read-out: hTAAR1 Emax) was greater than 85%. The “type of agonism at hTAAR1” value ([6]; cAMP BRET, HEK293) was “full agonists”, the EC50 ([6]; cAMP BRET) was 0.01 µM and the EC50 ([7]; chimeric human/mouse receptor) was 0.025 µM. For the same compound, the “type of agonism at cTAAR1” value [7] was “partial agonist”.

In the case of `N=C(N)NC(=O)Cc1c(Cl)cccc1Cl` [guanfacine], the EC50 ([2]; guanfacine) is listed as roughly 0.0251 µM, the adverse effects ([8]; higher doses (10 mg/Kg)) is listed as “provoked more relevant adverse effects” and the “effect on working memory” value ([8]; low doses (0.5–1 mg/Kg)) is listed as “improved working memory without reducing blood pressure or causing significant sedation”. For the same compound, the “type of agonism at hTAAR1” value ([6]; cAMP BRET, HEK293) was “full agonists”, the EC50 ([6]; cAMP BRET) was 0.02 µM and the Emax ([6]; cAMP BRET, HEK293, read-out: hTAAR1 Emax) was greater than 85%. The “effect on locomotor activity” value [9] was “decreased locomotor activity”.

For `NCCc1ccccc1` [β-PEA, β-phenylethylamine], the EC50 ([6]; cAMP BRET) was 0.202 µM.
